Results on two molecules are retold here after patent US20180296531A1, “STIMULATION OF 11B-HSD2 EXPRESSION TO IMPROVE HORMONAL THERAPY OF STEROID-DEPENDENT DISEASE” (THE CLEVELAND CLINIC FOUNDATION, priority 2015, published 2018).

For this assay, the system named is PSA, KLF9, PMEPA1 expression. The assay is described as follows: Steroid-induced gene expression (PSA, KLF9, PMEPA1) by qPCR in long-term Enz-treated LAPC4 cells. The note with it: LAPC4 treated with Enz 36 days, steroid 24 hours. In kind it is cell-based, human. The protocol:
LAPC4 cells were treated with Enz for 36 days and then seeded into 12 well plates coated with poly-DL-ornithine at 50% confluence. […] Total RNA was extracted with a GenElute Mammalian Total RNA miniprep kit (Sigma-Aldrich) and 1 μg RNA was reverse-transcribed to cDNA with the iScript cDNA Synthesis Kit (Bio-Rad). An ABI 7500 Real-Time PCR machine (Applied Biosystems) was used to perform the qPCR analysis, using iTaq Fast SYBR Green Supermix with ROX (Bio-Rad) in 96-well plates at a final reaction volume of 10 μl. The qPCR analysis was carried out in triplicate with suitable primers. Each mRNA transcript was quantitated by normalizing the sample values to RPLP0 and to vehicle treated cells (for steroid treated cells). All gene expression studies were repeated in independent experiments.

With `C[C@]12CCC(=O)C=C1CC[C@@H]1[C@@H]2[C@@H](O)C[C@@]2(C)[C@H]1CC[C@]2(O)C(=O)CO` [cortisol], the KLF9 expression result is “induced” and the PSA expression result was “cortisol induction of PSA expression”.
For the molecule `C[C@]12CCC(=O)C[C@@H]1CC[C@@H]1[C@@H]2CC[C@]2(C)[C@@H](O)CC[C@@H]12` [DHT, 5α-dihydrotestosterone], the PMEPA1 expression result is given as “induced with DHT only”.
